Patent publication US9024041B2, “P38 MAP kinase inhibitors” (Respivert Ltd., priority 2010, dated 2015)
Marks after values point to notes of the source that are not given here.

Tests used:
[1] = target: T1, p38 MAPKα isoform (MAPK14: Invitrogen) (Homo sapiens, UniProt Q16539); test: p38 MAPKα enzyme inhibition assay (FRET, Z-LYTE, via MAPKAP-K2 activation); assay type: biochemical; details: 2 hr pre-incubation, ATP 10.0 μM; read-out: Enzyme Inhibition IC50 p38α
T1 construct: purchased Invitrogen
T1 sequence (Q16539 whole entry, canonical isoform): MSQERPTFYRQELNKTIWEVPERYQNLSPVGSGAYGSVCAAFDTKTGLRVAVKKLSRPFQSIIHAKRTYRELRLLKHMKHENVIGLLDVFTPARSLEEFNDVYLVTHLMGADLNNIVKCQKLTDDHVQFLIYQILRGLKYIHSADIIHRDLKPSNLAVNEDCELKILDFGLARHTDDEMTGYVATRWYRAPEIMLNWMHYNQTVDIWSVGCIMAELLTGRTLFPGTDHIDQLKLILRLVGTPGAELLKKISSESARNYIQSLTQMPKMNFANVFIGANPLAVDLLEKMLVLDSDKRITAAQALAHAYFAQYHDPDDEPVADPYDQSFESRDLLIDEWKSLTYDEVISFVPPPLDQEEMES

[2] = system: Differentiated U937 cells; test: MTT assay: cell viability on exposure to test compounds; assay type: cell-based, human; details: percentage loss of cell viability vs vehicle; for MTT Assay (Viability) 4 h d-U937: 5% FCS; for MTT Assay (Viability) 24 h d-U937: 10% FCS
Method in brief: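 Differentiated U937 cells were pre-incubated with compound for either 4 h in 5% FCS or 24 h in 10% FCS, then given MTT for 1 h. Formazan was dissolved in DMSO and read at 550 nm. Viability loss is expressed as % versus 0.5% DMSO vehicle, so an apparent gain appears as a negative value.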

[3] = system: LPS-induced TNFα release in THP-1 cells; test: LPS-induced TNFα release in THP-1 cells; assay type: cell-based; details: Homo sapiens, 3 μg/mL LPS, 4 hr
Method in brief: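 Human monocytic cells were stimulated with 3 μg/mL E. coli LPS for 4 hr. Supernatant TNFα was measured by sandwich ELISA. Inhibition was taken relative to vehicle control, and IC50 derived from the concentration-response curve.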

[4] = system: LPS-induced TNFα release in d-U937 cells; test: LPS-induced TNFα release in d-U937 cells; assay type: cell-based; details: Homo sapiens, dU937, 4 h; read-out: LPS/TNFα REC50 d-U937
Method in brief: (§1)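 U937 cells differentiated with PMA (100 ng/mL, 48–72 hr), pre-incubated with compound 2 hr, then stimulated with 0.1 μg/mL E. coli O111:B4 LPS for 4 hr. Supernatant TNFα and IL-8 measured by sandwich ELISA; REC50 (TNFα) and IC50 (IL-8 inhibition vs vehicle) taken from concentration-response curves.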

[5] = target: T2, Recombinant, phosphorylated p38 MAPKγ (MAPK12:Invitrogen) (Homo sapiens, UniProt P53778); test: p38 MAPKγ enzyme inhibition assay (FRET, Z-LYTE); assay type: biochemical; details: 2 hr pre-incubation, ATP 100 μM; read-out: Enzyme Inhibition IC50 p38γ
T2 construct: purchased Invitrogen
T2 sequence (P53778 1-367): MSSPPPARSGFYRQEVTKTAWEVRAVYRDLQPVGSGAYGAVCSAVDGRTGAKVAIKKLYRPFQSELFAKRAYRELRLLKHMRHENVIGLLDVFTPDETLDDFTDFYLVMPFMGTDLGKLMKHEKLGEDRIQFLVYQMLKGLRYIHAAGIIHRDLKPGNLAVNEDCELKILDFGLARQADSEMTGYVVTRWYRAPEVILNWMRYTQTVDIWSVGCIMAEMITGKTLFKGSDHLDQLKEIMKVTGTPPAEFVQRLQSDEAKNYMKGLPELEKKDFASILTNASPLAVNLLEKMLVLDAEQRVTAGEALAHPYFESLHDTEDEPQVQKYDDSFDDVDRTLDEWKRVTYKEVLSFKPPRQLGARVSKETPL

[6] = system: Poly I:C-induced ICAM-1 expression in BEAS2B cells; test: Poly I:C-induced ICAM-1 induction in BEAS2B cells; assay type: cell-based; details: Homo sapiens, BEAS-2B, poly I:C 1 μg/mL, 18 hr, read-out: PolyI:C/ICAM1 IC50 BEAS2B
Method in brief: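 Human bronchial epithelial BEAS2B cells were pre-incubated with compound for 2 h, then transfected with poly I:C at 1 μg/mL. Surface ICAM-1 was measured 18 h later by cell-based ELISA (OD450–655), normalised to crystal-violet cell number (OD595). IC50 was taken from the concentration–response curve against vehicle.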

[7] = system: LPS-induced IL-8 release in d-U937 cells; test: LPS-induced IL-8 release in d-U937 cells; assay type: cell-based; details: Homo sapiens, dU937, 0.1 μg/mL LPS, 4 hr
Method in brief: as §1

Row | IC50 [1] [nM] | IC50 [3] [nM] | EC50 [4] [nM] | IC50 [5] [nM] | IC50 [7] [nM] | SMILES | MTT Assay (Viability) 4 h d-U937 ([2]; 1 μg/mL) [%] | MTT Assay (Viability) 24 h d-U937 ([2]; 1 μg/mL) [%] | IC50 [6] [nM] | MTT Assay (Viability) 4 h d-U937 ([2]; 10 μg/mL) | MTT Assay (Viability) 24 h d-U937 ([2]; 10 μg/mL)
1 | 12.8 | 1260 | 120 | 2810 | 204 | COCC(=O)Nc1cc(COc2ccc(NC(=O)Nc3cc(C(C)(C)C)nn3-c3ccc(OC)nc3)c(C)c2C)ccn1 [Example 61, N-(4-((4-(3-(3-tert-butyl-1-(6-methoxypyridin-3-yl)-1H-pyrazol-5-yl)ureido)-2,3-dimethylphenoxy)methyl)pyridin-2-yl)-2-methoxy acetamide] | 3.5 | −5.1 | > 1700 | – | –
2 | 14.8 | 2.6 | 2.5 | 20.3 | 14.4 | CNC(=O)Nc1cc(Oc2ccc(NC(=O)Nc3cc(C(C)(C)C)nn3-c3ccc(O)nc3)c(C)c2C)ccn1 [Example 62, 1-(4-(4-(3-(3-tert-butyl-1-(6-hydroxypyridin-3-yl)-1H-pyrazol-5-yl)ureido)-2,3-dimethylphenoxy)pyridin-2-yl)-3-methylurea] | −1.1 | −2.6 | 24.6 | – | –
3 | 16.2 | 28.3 | 26.3 | > 17500 | 125 | CNC(=O)Nc1cc(COc2ccc(NC(=O)Nc3cc(C(C)(C)C)nn3-c3ccc(OC)nc3)c(C)c2C)ccn1 [Example 63, 1-(4-((4-(3-(3-tert-butyl-1-(6-methoxypyridin-3-yl)-1H-pyrazol-5-yl)ureido)-2,3-dimethylphenoxy)methyl)pyridin-2-yl)-3-methylurea] | 32.5 | 21.2 | 178 | – | –
4 | 17.1 | 10.9 | 2.1 | 1650 | 7.4 | COCC(=O)Nc1cc(Cc2ccc(NC(=O)Nc3cc(C(C)(C)C)nn3-c3ccc(C)cc3)c3ccccc23)ccn1 [Example 64, N-(4-((4-(3-(3-tert-butyl-1-(p-tolyl)-1H-pyrazol-5-yl)ureido)naphthalen-1-yl)methyl)pyridin-2-yl)-2-methoxyacetamide] | – | – | 20.1 | −3.7^b % | 61.6^b %
5 | 1.2 | 10.7 | 10.9 | 275 | 18.9 | COCCOCC(=O)Nc1cc(Cc2ccc(NC(=O)Nc3cc(C(C)(C)C)nn3-c3ccc(C)cc3)c3ccccc23)ccn1 [Example 65, N-(4-((4-(3-(3-tert-butyl-1-p-tolyl-1H-pyrazol-5-yl)ureido)naphthalen-1-yl)methyl)pyridin-2-yl)-2-(2-methoxyethoxy)acetamide] | – | – | 62.7 | −1.5^b % | 55.9^b %
6 | 7.3 | 2.9 | 1 | 7360 | 171 | COCC(=O)Nc1cc(C(=O)c2ccc(NC(=O)Nc3cc(C(C)(C)C)nn3-c3ccc(C)cc3)c3ccccc23)ccn1 [Example 66, N-(4-(4-(3-(3-tert-butyl-1-p-tolyl-1H-pyrazol-5-yl)ureido)-1-naphthoyl)pyridin-2-yl)-2-methoxyacetamide] | – | – | 48.4 | 11.0^b % | 71.1^b %
